Data from article PMC6965684, “Characterization of binding, functional activity, and contractile responses of the selective 5‐HT1F receptor agonist lasmiditan” (British Journal of Pharmacology, 2019).
Where a name gives a salt, the structure may show the parent alone.

Columns and labels:
5-HT1F receptor [1] = biological target: T1, 5-HT1F receptor (Homo sapiens, UniProt P30939); assay: cell-based; design: species or system CHO-K1; cAMP HTRF agonist assay, Gi coupled receptors, inhibition of stimulated cAMP; details: cAMP
T1 construct: gene HTR1F; full-length human recombinant receptor in CHO-K1 cells (Ogeda)
T1 sequence (P30939 1-366): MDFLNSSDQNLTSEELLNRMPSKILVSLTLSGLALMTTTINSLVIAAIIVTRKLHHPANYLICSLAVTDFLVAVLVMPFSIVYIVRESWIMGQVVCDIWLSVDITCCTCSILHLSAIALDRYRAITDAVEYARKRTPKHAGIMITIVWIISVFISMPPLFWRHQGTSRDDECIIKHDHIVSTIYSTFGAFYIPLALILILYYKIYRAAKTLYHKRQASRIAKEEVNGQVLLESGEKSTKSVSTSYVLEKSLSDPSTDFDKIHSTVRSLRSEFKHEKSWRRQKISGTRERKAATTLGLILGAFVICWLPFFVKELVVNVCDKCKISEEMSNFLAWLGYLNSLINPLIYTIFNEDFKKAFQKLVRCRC
Procedure: Concentration–response curves were performed in parallel with the agonists. For agonist tests, 12 μl of cells were mixed with 6 μl of the test compound (at increasing concentrations) and 6 μl of https://www.guidetopharmacology.org/GRAC/LigandDisplayForward?ligandId=5190 and then incubated for 30 min at room temperature. After addition of the lysis buffer and 1‐hr incubation, cAMP concentrations were estimated according to the manufacturer specification with the HTRF kit (Cisbio International, Codelet, France). In brief, increasing concentrations of agonists were added to stably transfected cells in buffer in an Optiplate (PerkinElmer Life Sciences, Massachusetts, USA). The plates were incubated, and cells were then lysed by the addition of HTRF reagents (cAMP‐Cryptate and anti‐cAMP‐d2 reagents) and diluted in lysis buffer, followed by incubation at room temperature. As 5‐HT1B receptors have been reported in naïve CHO‐K1 cells (George, Bungay, & Naylor, 1997), we also tested https://www.guidetopharmacology.org/GRAC/LigandDisplayForward?ligandId=4 (5‐CT, the reference agonist for the 5‐HT1B receptor), in CHO‐K1 cells transfected with a non‐5‐HT, GPCR. […] For the new assays developed in this study (i.e., 5‐ht1E receptor), the two independent pIC50 determined must be concordant with a 1 log unit interval for the assays to be validated. […]

5-HT1F receptor [2] = biological target: T1, 5-HT1F receptor; assay: radioligand competition, CHO-K1 membranes; format: binding; details: radioligand listed in supplement Table S1; unreliable (pIC50 printed as <[…])
Excerpt: radioligand competition, CHO-K1 membranes on 5-HT1F receptor

CNC1CCc2[nH]c3ccc(C(N)=O)cc3c2C1 (racemic) [Frovatriptan racemate]
EC50 (5-HT1F receptor [1]): 79.4 nM

N#Cc1ccc(N2CCN(C(=O)COc3ccc4[nH]cc(CCN)c4c3)CC2)cc1 [Donitriptan hydrochloride]
5-HT1F / pKi (5-HT1F receptor [2]): 5.18 -log M

CN(C)[C@@H]1CCc2[nH]c3ccc(NC(=O)c4ccc(F)cc4)cc3c2C1 [LY344864 hydrochloride]
EC50 (5-HT1F receptor [1]): 1.91 nM
